This passage reports EC50 results from patent publication US10669258B2, “3-sulfonyl-5-aminopyridine-2,4-diol APJ agonists” (BRISTOL-MYERS SQUIBB COMPANY, priority 2016, dated 2020).

The first assay has as its target T1, human APJ receptor (Homo sapiens, UniProt P35414).
T1 construct: expressed in transfected cells; host or cells: HEK293
T1 sequence (P35414 1-380): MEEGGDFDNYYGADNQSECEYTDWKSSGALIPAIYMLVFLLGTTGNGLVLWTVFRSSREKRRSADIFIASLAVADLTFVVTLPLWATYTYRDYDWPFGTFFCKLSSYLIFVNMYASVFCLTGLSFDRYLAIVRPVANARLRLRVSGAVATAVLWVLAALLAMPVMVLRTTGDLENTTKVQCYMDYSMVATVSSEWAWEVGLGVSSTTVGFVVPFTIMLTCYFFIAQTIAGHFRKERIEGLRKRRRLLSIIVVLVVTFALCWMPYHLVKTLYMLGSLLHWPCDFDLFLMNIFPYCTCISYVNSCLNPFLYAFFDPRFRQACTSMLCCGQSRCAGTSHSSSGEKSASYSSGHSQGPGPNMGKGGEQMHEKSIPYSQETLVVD
Nature of the assay: Intracellular cAMP accumulation assay (APJ hcAMP, HTRF). In kind it is cell-based. The settings on record: HEK293 cells stably expressing human APJ receptor; inhibition of forskolin-mediated cAMP production; Table 1; read-out: hAPJ cAMP EC50 Potency range. Summed up: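 Inhibition of forskolin (2 μM)-driven cAMP, with […], measured by HTRF after 30 min room-temperature compound exposure of stably transfected HEK293 cells. cAMP read from a standard curve; variable-slope fit gives EC50, and maximal inhibition is normalised to (Pyr1)apelin-13 as 100%.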
(Cyclic AMP is a second messenger, typically raised through Gs and lowered through Gi signalling.)
With `CCN(c1ccccc1)c1c(-c2cnn(C)c2)nc(O)c(S(=O)(=O)c2ccc(-c3ccnc(F)c3C)cc2)c1O` [Example 149, 5-(ethyl(phenyl)amino)-3-((4-(2-fluoro-3-methylpyridin-4-yl)phenyl)sulfonyl)-6-(1-methyl-1H-pyrazol-4-yl)pyridine-2,4-diol], the EC50 lay within 0.01 to 10 nM.
Same read-out and setting: as for `CCCCc1nc(O)c(S(=O)(=O)c2ccc(-c3ccccc3C(N)=O)cc2)c(O)c1N1CCCc2ccccc21` [Example 057, 4′-((6-butyl-5-(3,4-dihydroquinolin-1(2H)-yl)-2,4-dihydroxypyridin-3-yl)sulfonyl)-[1,1′-biphenyl]-2-carboxamide], the figure is 0.01 to 10 nM.
The same measure, in the same setting: the value for `CCN(c1ccccc1)c1c(-c2cccc(C)c2)nc(O)c(S(=O)(=O)c2ccc(-c3ccccc3C(=O)N(C)C)cc2)c1O` [Example 141, 4′-((5-(ethyl(phenyl)amino)-2,4-dihydroxy-6-(m-tolyl)pyridin-3-yl)sulfonyl)-N,N-dimethyl-[1,1′-biphenyl]-2-carboxamide] was 0.01 to 10 nM.
On the same count and under the same terms, as for `CCCCc1nc(O)c(S(=O)(=O)c2ccc(-c3ccnc(F)c3C)cc2)c(O)c1N(C)c1ccccc1` [Example 011, 6-butyl-3-((4-(2-fluoro-3-methylpyridin-4-yl)phenyl)sulfonyl)-5-(methyl(phenyl)amino)pyridine-2,4-diol], the figure is 0.01 to 10 nM; as for `CCCCc1nc(O)c(S(=O)(=O)c2ccc(-c3ccncc3C)cc2)c(O)c1N(C)c1cccc(C#N)c1` [Example 113, 3-((2-butyl-4,6-dihydroxy-5-((4-(3-methylpyridin-4-yl)phenyl)sulfonyl)pyridin-3-yl)(methyl)amino)benzonitrile], 0.01 to 10 nM.
Take `CCCCc1nc(O)c(S(=O)(=O)c2ccc(-c3ccnc(F)c3C)cc2)c(O)c1N(C)c1ccc(Cl)cc1` [Example 103, 6-butyl-5-((4-chlorophenyl)(methyl)amino)-3-((4-(2-fluoro-3-methylpyridin-4-yl)phenyl)sulfonyl)pyridine-2,4-diol]: the EC50 is 0.01 to 10 nM.
Turning to `CCCCc1nc(O)c(S(=O)(=O)c2ccc(-c3ccncc3C)cc2)c(O)c1N(c1ccccc1)C(C)C` [Example 027, 6-butyl-5-(isopropyl(phenyl)amino)-3-((4-(3-methylpyridin-4-yl)phenyl)sulfonyl)pyridine-2,4-diol], the EC50 lay in the range of 0.01 to 10 nM.
On to `CCCCc1nc(O)c(S(=O)(=O)c2ccc(-c3ccccc3C(=O)N(C)C)cc2)c(O)c1N(C)c1ccccc1C` [Example 196, 4′-((6-butyl-2,4-dihydroxy-5-(methyl(o-tolyl)amino)pyridin-3-yl)sulfonyl)-N,N-dimethyl-[1,1′-biphenyl]-2-carboxamide], for which the EC50 fell in the range of 0.01 to 10 nM.
On the same count and under the same terms, as for `CCCCc1nc(O)c(S(=O)(=O)c2ccc(-c3cccnc3C)cc2)c(O)c1N(C)c1ccccc1F` [Example 124, 6-butyl-5-((2-fluorophenyl)(methyl)amino)-3-((4-(2-methylpyridin-3-yl)phenyl)sulfonyl)pyridine-2,4-diol], the figure is 0.01 to 10 nM; as for `CCN(c1ccccc1)c1c(-c2cnc(C)s2)nc(O)c(S(=O)(=O)c2ccc(-c3ccncc3C)cc2)c1O` [Example 187, 5-(ethyl(phenyl)amino)-3-((4-(3-methylpyridin-4-yl)phenyl)sulfonyl)-6-(2-methylthiazol-5-yl)pyridine-2,4-diol], 0.01 to 10 nM.
Still for that read-out and setting: the value for `CCCCc1nc(O)c(S(=O)(=O)c2ccc(-c3ccc(F)nc3C)cc2)c(O)c1N(C)c1ccccc1C` [Example 198, 6-butyl-3-((4-(6-fluoro-2-methylpyridin-3-yl)phenyl)sulfonyl)-5-(methyl(o-tolyl)amino)pyridine-2,4-diol] was 10 to 100 nM.
On the same count and under the same terms, as for `CCCCc1nc(O)c(S(=O)(=O)c2ccc(-c3ccccc3C(=O)NC)cc2)c(O)c1N(C)c1ccccc1F` [Example 176, 4′-((6-butyl-5-((2-fluorophenyl)(methyl)a-mino)-2,4-dihydroxypyridin-3-yl)sulfonyl)-N-methyl-[1,1′-biphenyl]-2-carboxamide], the figure is 0.01 to 10 nM; as for `CCCCc1nc(O)c(S(=O)(=O)c2ccc(-c3ccncc3C)cc2)c(O)c1N(C)c1cccc(Cl)c1` [Example 110, 6-butyl-5-((3-chlorophenyl)(methyl)amino)-3-((4-(3-methylpyridin-4-yl)phenyl)sulfonyl)pyridine-2,4-diol], 0.01 to 10 nM.
With `CCCCc1nc(O)c(S(=O)(=O)c2ccc(Br)cc2)c(O)c1N(C)c1cccc(C)c1` [Example 093, 3-((4-bromophenyl)sulfonyl)-6-butyl-5-(methyl(m-tolyl)amino)pyridine-2,4-diol], the EC50 was 10 to 100 nM.
For the molecule `CCCCc1nc(O)c(S(=O)(=O)c2ccc(-c3ccc(F)nc3C)cc2)c(O)c1N(C)c1cccc(F)c1` [Example 109, 6-butyl-3-((4-(6-fluoro-2-methylpyridin-3-yl)phenyl)sulfonyl)-5-((3-fluorophenyl)(methyl)amino)pyridine-2,4-diol], the EC50 was in the range of 10 to 100 nM.
Same read-out and setting: as for `CCCCc1nc(O)c(S(=O)(=O)c2ccc(-c3ccc(F)nc3C)cc2)c(O)c1N(C)c1ccccc1` [Example 015, 6-butyl-3-((4-(6-fluoro-2-methylpyridin-3-yl)phenyl)sulfonyl)-5-(methyl(phenyl)amino)pyridine-2,4-diol], the figure is 0.01 to 10 nM.
Still for that read-out and setting: the value for `CCCCc1nc(O)c(S(=O)(=O)c2ccc(-c3ccccc3C(N)=O)cc2)c(O)c1N(C)c1ccccc1` [Example 065, 4′-((6-butyl-2,4-dihydroxy-5-(methyl(phenyl)amino)pyridin-3-yl)sulfonyl)-[1,1′-biphenyl]-2-carboxamide] was 0.01 to 10 nM.
Same read-out and setting: the value for `CCCCc1nc(O)c(S(=O)(=O)c2ccc(-c3ccccc3C(=O)NC)cc2)c(O)c1N1CCCc2ccccc21` [Example 061, 4′-((6-butyl-5-(3,4-dihydroquinolin-1(2H)-yl)-2,4-dihydroxypyridin-3-yl)sulfonyl)-N-methyl-[1,1′-biphenyl]-2-carboxamide] was 0.01 to 10 nM; that for `CCCCc1nc(O)c(S(=O)(=O)c2ccc(-c3ccccc3C(N)=O)cc2)c(O)c1N1CCCOc2ccccc21` [Example 168, 4′-((6-butyl-5-(3,4-dihydrobenzo[b][1,4]ox-azepin-5(2H)-yl)-2,4-dihydroxypyridin-3-yl)sulfonyl)-[1,1′-biphenyl]-2-carboxamide] was 0.01 to 10 nM.
With `CCCCc1nc(O)c(S(=O)(=O)c2ccc(-n3cc(Cl)ccc3=O)cc2)c(O)c1N(CC)c1ccccc1` [Example 082, 1-(4-((6-butyl-5-(ethyl(phenyl)amino)-2,4-dihydroxypyridin-3-yl)sulfonyl)phenyl)-5-chloropyridin-2(1H)-one], the EC50 was in the range of 0.01 to 10 nM.

Staying with this assay, now noted: HEK293 cells stably expressing human APJ receptor; inhibition of forskolin-mediated cAMP production; Table 2; read-out: hAPJ cAMP EC50 Potency range.
`CCN(c1ccccc1)c1c(-c2ccn(C)n2)nc(O)c(C(=O)N2CCC(c3ccc(F)cc3F)C2)c1O` (stereo not drawn) [Example 207, (3-(2,4-difluorophenyl)pyrrolidin-1-yl)(5-(ethyl(phenyl)amino)-2,4-dihydroxy-6-(1-methyl-1H-pyrazol-3-yl)pyridin-3-yl)methanone]: the EC50 fell in the range of 0.01 to 10 nM.

Staying with this assay, now noted: HEK293 cells stably expressing human APJ receptor; inhibition of forskolin-mediated cAMP production; read-out: Human APJ cAMP Potency range.
Turning to `CCCCc1nc(O)c(S(=O)(=O)c2ccc(-c3ccnc(F)c3C)cc2)c(O)c1N(C)c1cccc(C#N)c1` [AB-005, 3-((2-butyl-5-((4-(2-fluoro-3-methylpyridin-4-yl)phenyl)sulfonyl)-4,6-dihydroxypyridin-3-yl)(methyl)amino)benzonitrile], the EC50 lay in the range of 0.01 to 10 nM.
On the same count and under the same terms, the value for `CCCCc1nc(O)c(S(=O)(=O)c2ccc(-c3ccc(F)nc3)cc2)c(O)c1N(CC)c1ccccc1` [Example 002, 6-butyl-5-(ethyl(phenyl)amino)-3-((4-(6-fluoropyridin-3-yl)phenyl)sulfonyl)pyridine-2,4-diol] was 0.01 to 10 nM.
On the same count and under the same terms, the value for `CCCCc1nc(O)c(S(=O)(=O)c2ccc(-n3cc(C)ccc3=O)cc2)c(O)c1N(CC)c1ccccc1` [Example 003, 1-(4-((6-butyl-5-(ethyl(phenyl)amino)-2,4-dihydroxypyridin-3-yl)sulfonyl)phenyl)-5-methylpyridin-2(1H)-one] was 0.01 to 10 nM.

The same assay, now with this note: hAPJ cAMP EC50 Potency range, HEK293 cells stably expressing human APJ receptor; inhibition of forskolin-mediated cAMP production; Table 1.
For `CCCCc1nc(O)c(C(=O)N2CCC(c3ccccc3F)C2)c(O)c1N(CC)c1ccccc1` (stereo not drawn) [Example 075, (6-butyl-5-(ethyl(phenyl)amino)-2,4-dihydroxypyridin-3-yl)(3-(2-fluorophenyl)pyrrolidin-1-yl)methanone], the EC50 lay in the range of 0.01 to 10 nM.
Same read-out and setting: as for `CCCCc1nc(O)c(C(=O)N2CCC(c3ccc(Cl)cn3)C2)c(O)c1N(CC)c1ccccc1` (stereo not drawn) [Example 067, (6-butyl-5-(ethyl(phenyl)amino)-2,4-dihydroxypyridin-3-yl)(3-(5-chloropyridin-2-yl)pyrrolidin-1-yl)methanone], the figure is 0.01 to 10 nM.
Same read-out and setting: the value for `CCCCc1nc(O)c(C(=O)N2CCC(c3ncc(F)cc3F)C2)c(O)c1N(CC)c1ccccc1` (stereo not drawn) [Example 071, (6-butyl-5-(ethyl(phenyl)amino)-2,4-dihydroxypyridin-3-yl)(3-(3,5-difluoropyridin-2-yl)pyrrolidin-1-yl)methanone] was 0.01 to 10 nM.
